According to US20230212549A1, “COMPOUNDS COMPRISING A […] LIGAND AND USE THEREOF” (priority 2021, published 2023):
Numbered stars: 1 amine (or outer) side, 2 acyl side, 3 side chain; on linkers, the order of the positions; unused ones are H or OH. Bridge positions count the residues as written; N and C are the ends. Square brackets hold non-standard residues; d marks the D form. Peptide text beside a SMILES is read from it. * marks the point of attachment. X17 = NC(=O)[C@H](CCCCNC(=O)CN1CCN(CC(=O)O)CCN(CC(=O)O)CCN(CC(=O)O)CC1)NC(=O)CCC(=O)NCCCOCCOCCOCCCN*; TBMB(SCH2CH2NH-DOTA) = O=C(O)CN1CCN(CC(=O)O)CCN(CC(=O)NCCSCc2cc(C[*:1])cc(C[*:2])c2)CCN(CC(=O)O)CC1; X18 = NCCNCC(CNCCN)C(=O)N[C@@H](CCC(=O)O)C(=O)NCCCOCCOCCOCCCN*; mXylylene = c1cc(C[*:1])cc(C[*:2])c1; Suc = O=C(CCC(=O)[*:2])[*:1]; Nle = CCCC[C@H](N)C(=O)O; Hexanoyl = CCCCCC(=O)*; CO = O=C([*:1])[*:2]; Sar = CNCC(=O)O; NHBu = CCCCN*

Tests used:
[1] = target: T1, FAP-expressing human WI-38 fibroblasts (Homo sapiens, UniProt Q12884); experiment: Competitive FACS binding assay
T1 construct: FAP-expressing human WI-38 fibroblasts (ECACC) were cultured in EMEM; host or cells: WI-38 human fibroblasts
T1 sequence (Q12884 whole entry): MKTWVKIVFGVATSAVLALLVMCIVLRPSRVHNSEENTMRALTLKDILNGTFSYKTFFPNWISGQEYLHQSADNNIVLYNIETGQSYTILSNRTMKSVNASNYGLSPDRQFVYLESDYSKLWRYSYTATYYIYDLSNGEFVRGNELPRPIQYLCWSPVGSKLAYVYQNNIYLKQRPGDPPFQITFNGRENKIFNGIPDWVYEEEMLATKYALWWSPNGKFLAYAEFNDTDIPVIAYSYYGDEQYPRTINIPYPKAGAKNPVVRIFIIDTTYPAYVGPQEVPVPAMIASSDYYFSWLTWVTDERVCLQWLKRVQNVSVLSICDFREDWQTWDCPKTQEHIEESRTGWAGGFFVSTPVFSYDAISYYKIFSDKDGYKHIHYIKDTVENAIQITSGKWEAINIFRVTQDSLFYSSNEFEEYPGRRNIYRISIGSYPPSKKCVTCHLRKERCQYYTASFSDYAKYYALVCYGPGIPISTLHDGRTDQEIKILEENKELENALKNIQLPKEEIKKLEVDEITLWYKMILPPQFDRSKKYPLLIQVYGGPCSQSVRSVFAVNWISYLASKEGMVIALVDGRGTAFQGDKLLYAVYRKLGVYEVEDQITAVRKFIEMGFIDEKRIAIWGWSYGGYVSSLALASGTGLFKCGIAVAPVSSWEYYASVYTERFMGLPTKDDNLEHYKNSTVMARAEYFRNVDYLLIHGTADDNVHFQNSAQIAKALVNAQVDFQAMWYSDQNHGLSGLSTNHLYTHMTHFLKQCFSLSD
Method: Cells were analyzed in an Attune NxT flow cytometer. […] […].
Cells were analyzed in an Attune NxT flow cytometer. […]

Human recombinant FAP [2] = target: T2, Human recombinant FAP (Homo sapiens, UniProt Q12884); experiment: Surface plasmon resonance (Biacore) assay; type: binding
T2 sequence (Q12884 whole entry): as above

Human recombinant FAP [3] = target: T2, Human recombinant FAP; experiment: FRET-based FAP protease activity assay; type: biochemical; set-up: purchased R&D systems 3715-SE; details: pIC50 Category (Activity), 37° C.
[4] = FRET-based FAP protease activity assay, recombinant human FAP

IC50 [1] [nM]	Kd (Human recombinant FAP [2]) [nM]	IC50 (Human recombinant FAP [3]; [4]) [nM]	IC50 (Human recombinant FAP [3]; FRET-peptide substrate) [nM]	SMILES	pKD Category (Human recombinant FAP [2]; Biacore assay)
< 10	< 10	< 10	–	CCCCCC(=O)N[C@H]1CSCc2cc(CSCCNC(=O)CN3CCN(CC(=O)O)CCN(CC(=O)O)CCN(CC(=O)O)CC3)cc(c2)CSC[C@@H](C(N)=O)NC(=O)[C@H](Cc2ccccc2)NC(=O)[C@H](CCC(=O)O)NC(=O)[C@H]([C@@H](C)O)NC(=O)[C@@H]2CCCN2C(=O)[C@@H]2CCCN2C1=O [3BP-3653, Hex-[Cys(tMeBn(DOTA-AET))-Pro-Pro-Thr-Glu-Phe-Cys]-NH2] (Hexanoyl-CPPTEFC-NH2; linker 1-7 via TBMB(SCH2CH2NH-DOTA))	–
< 10	< 10	–	< 10	CCCCOC(=O)N[C@H]1CSCc2cc(CSCCNC(=O)CN3CCN(CC(=O)O)CCN(CC(=O)O)CCN(CC(=O)O)CC3)cc(c2)CSC[C@@H](C(=O)O)NC(=O)[C@H](Cc2ccccc2)NC(=O)[C@H](CCC(N)=O)NC(=O)[C@H]([C@@H](C)O)NC(=O)[C@@H]2CCCN2C(=O)[C@@H]2CCCN2C1=O [3BP-3941, nBu-COyl-[Cys(tMeBn(DOTA-AET))-Pro-Pro-Thr-Gln-Phe-Cys]-OH]	–
< 10	< 10	< 10	–	CCCCCC(=O)N[C@H]1CSCc2cccc(c2)CSC[C@@H](C(=O)N[C@@H](CC(=O)O)C(=O)NCCCOCCOCCOCCCNC(=O)CCC(=O)N[C@@H](CCCCNC(=O)CN2CCN(CC(=O)O)CCN(CC(=O)O)CCN(CC(=O)O)CC2)C(N)=O)NC(=O)[C@H](Cc2ccccc2)NC(=O)[C@H](CCC(N)=O)NC(=O)[C@H]([C@@H](C)O)NC(=O)[C@@H]2CCCN2C(=O)[C@@H]2CCCN2C1=O [3BP-3395, Hex-[Cys(3MeBn)-Pro-Pro-Thr-Gln-Phe-Cys]-Asp-Ttds-Lys(DOTA)-NH2] (Hexanoyl-CPPTQFCD-X17; linker 1-7 via mXylylene)	–
< 10	< 10	–	< 10	CCCCC(=O)N[C@H]1CSCc2cc(CSCCNC(=O)CN3CCN(CC(=O)O)CCN(CC(=O)O)CCN(CC(=O)O)CC3)cc(c2)CSC[C@@H](C(=O)O)NC(=O)[C@H](Cc2ccccc2)NC(=O)[C@H](CCC(N)=O)NC(=O)[C@H]([C@@H](C)O)NC(=O)[C@@H]2CCCN2C(=O)[C@@H]2CCCN2C1=O [3BP-3910, Pent-[Cys(tMeBn(DOTA-AET))-Pro-Pro-Thr-Gln-Phe-Cys]-OH]	A (Category A stands for pKD values >8.0)
10 to 79.4	< 10	–	10 to 79.4	CCCC[C@H](NC(=O)CCC(=O)NCCCOCCOCCOCCCNC(=O)[C@H](CCC(=O)O)NC(=O)C(CNCCN)CNCCN)C(=O)N[C@H]1CSCc2cccc(c2)CSC[C@@H](C(=O)O)NC(=O)[C@H](Cc2ccccc2)NC(=O)[C@H](CCC(=O)O)NC(=O)[C@H]([C@@H](C)O)NC(=O)[C@@H]2CCCN2C(=O)[C@@H]2CCCN2C1=O [3BP-4222, N4Ac-Glu-Ttds-Nle-[Cys-(3MeBn)-Pro-Pro-Thr-Glu-Phe-Cys]-OH] ({X18-Suc}-[Nle]CPPTEFC-OH; linker 2-8 via mXylylene)	–
< 10	< 10	< 10	–	CCCCCC(=O)N[C@H]1CSCc2cccc(c2)CSC[C@@H](C(=O)N[C@@H](CC(=O)O)C(=O)NCCCOCCOCCOCCCNC(=O)CCC(=O)N[C@@H](CCCCNC(=O)CN2CCN(CC(=O)O)CCN(CC(=O)O)CCN(CC(=O)O)CC2)C(N)=O)NC(=O)[C@H](Cc2ccccc2)NC(=O)[C@H](CCC(=O)O)NC(=O)[C@H]([C@@H](C)O)NC(=O)[C@@H]2CCCN2C(=O)[C@@H]2CCCN2C1=O [3BP-3396, Hex-[Cys(3MeBn)-Pro-Pro-Thr-Glu-Phe-Cys]-Asp-Ttds-Lys(DOTA)-NH2] (Hexanoyl-CPPTEFCD-X17; linker 1-7 via mXylylene)	–
< 10	< 10	< 10	–	CCCCCC(=O)N[C@H]1CSCc2cc(CSCCNC(=O)CN3CCN(CC(=O)O)CCN(CC(=O)O)CCN(CC(=O)O)CC3)cc(c2)CSC[C@@H](C(=O)NCC(=O)O)NC(=O)[C@H](Cc2ccccc2)NC(=O)[C@H](CCC(N)=O)NC(=O)[C@H]([C@@H](C)O)NC(=O)[C@@H]2CCCN2C(=O)[C@@H]2CCCN2C1=O [3BP-3656, Hex-[Cys(tMeBn(DOTA-AET))-Pro-Pro-Thr-Gln-Phe-Cys]-Gly-OH] (Hexanoyl-CPPTQFCG-OH; linker 1-7 via TBMB(SCH2CH2NH-DOTA))	–

Second part, the molecule before the results:

SMILES	IC50 [1] [nM]	Kd (Human recombinant FAP [2]) [nM]	IC50 (Human recombinant FAP [3]; [4]) [nM]	IC50 (Human recombinant FAP [3]; FRET-peptide substrate) [nM]	pKD Category (Human recombinant FAP [2]; Biacore assay)
CCCCCC(=O)N[C@H]1CSCc2cc(CSCCNC(=O)CCC(=O)NCCCOCCOCCOCCCNC(=O)CCC(=O)NCCCOCCOCCOCCCNC(=O)CCC(=O)NCCCOCCOCCOCCCNC(=O)CCC(=O)NCCCOCCOCCOCCCNC(=O)c3ccc4c(c3)C(=O)OC43c4ccc(N)c(S(=O)(=O)O)c4Oc4c3ccc(N)c4S(=O)(=O)O)cc(c2)CSC[C@@H](C(=O)O)NC(=O)[C@H](Cc2ccccc2)NC(=O)[C@H](CCC(N)=O)NC(=O)[C@H]([C@@H](C)O)NC(=O)[C@@H]2CCCN2C(=O)[C@@H]2CCCN2C1=O [3BP-4232, Hex--[C(tMeBn(AF488--Ttds--Ttds--Ttds--Ttds--AET))-PPTQFC]-OH]	–	100 to 794	–	–	–
CCCCCC(=O)N[C@H]1CSCc2cc(CSCCNC(=O)CN3CCN(CC(=O)O)CCN(CC(=O)O)CCN(CC(=O)O)CC3)cc(c2)CSC[C@@H](C(=O)O)NC(=O)[C@H](Cc2ccccc2)NC(=O)[C@H](CCC(N)=O)NC(=O)[C@H]([C@@H](C)O)NC(=O)[C@@H]2C[C@@H](O)CN2C(=O)[C@@H]2CCCN2C1=O [3BP-3679, Hex-[Cys(tMeBn(DOTA-AET))-Pro-Hyp-Thr-Gln-Phe-Cys]-OH]	< 10	< 10	< 10	–	–
CCCCCC(=O)N[C@H]1CSCc2cc(CSCCNC(=O)COCCOCCNC(=O)CCC(C(=O)O)N3CCN(CC(=O)O)CCN(CC(=O)O)CC3)cc(c2)CSC[C@@H](C(=O)O)NC(=O)[C@H](Cc2ccccc2)NC(=O)[C@H](CCC(N)=O)NC(=O)[C@H]([C@@H](C)O)NC(=O)[C@@H]2CCCN2C(=O)[C@@H]2CCCN2C1=O (stereo partly drawn) [3BP-4251, Hex-[Cys-(tMeBn(NODAGA-O2Oc-AET))-Pro-Pro-Thr-Gln-Phe-Cys]-OH]	< 10	< 10	–	< 10	–
CCCCCC(=O)N[C@H]1CSCc2cc(CSCCNC(=O)CN3CCN(CC(=O)O)CCN(CC(=O)O)CCN(CC(=O)O)CC3)cc(c2)CSC[C@@H](C(=O)N[C@H](CC(=O)O)C(N)=O)NC(=O)[C@H](Cc2ccccc2)NC(=O)[C@H](CCC(N)=O)NC(=O)[C@H]([C@@H](C)O)NC(=O)[C@@H]2CCCN2C(=O)[C@@H]2CCCN2C1=O [3BP-3681, Hex-[Cys(tMeBn(DOTA-AET))-Pro-Pro-Thr-Gln-Phe-Cys]-asp-NH2]	< 10	< 10	< 10	–	–
CCCCNC(=O)N[C@H]1CSCc2cc(cc(CN3CCN(C(=O)CN4CCN(CC(=O)O)CCN(CC(=O)O)CCN(CC(=O)O)CC4)CC3)c2)CSC[C@@H](C(N)=O)NC(=O)[C@H](Cc2ccccc2)NC(=O)[C@H](CCC(N)=O)NC(=O)[C@H]([C@@H](C)O)NC(=O)[C@@H]2CCCN2C(=O)[C@@H]2CCCN2C1=O [3BP-4565, nBu-CAyl-[Cys(tMeBn(DOTA-PP))-Pro-Pro-Thr-Gln-Phe-Cys]-NH2]	< 10	< 10	–	< 10	–
CCCCCC(=O)N[C@H]1CSCc2cc(CSCCNC(=O)CN3CCN(CC(=O)O)CCN(CC(=O)O)CCN(CC(=O)O)CC3)cc(c2)CSC[C@@H](C(=O)N(C)CC(=O)O)NC(=O)[C@H](Cc2ccccc2)NC(=O)[C@H](CCC(N)=O)NC(=O)[C@H]([C@@H](C)O)NC(=O)[C@@H]2CCCN2C(=O)[C@@H]2CCCN2C1=O [3BP-3659, Hex-[Cys(tMeBn(DOTA-AET))-Pro-Pro-Thr-Gln-Phe-Cys]-Nmg-OH]	< 10	< 10	< 10	–	–
CCCCNC(=O)N[C@H]1CSCc2cc(CSCCNC(=O)CN3CCN(CC(=O)O)CCN(CC(=O)O)CCN(CC(=O)O)CC3)cc(c2)CSC[C@@H](C(=O)O)NC(=O)[C@H](Cc2ccccc2)NC(=O)[C@H](CCC(N)=O)NC(=O)[C@H]([C@@H](C)O)NC(=O)[C@@H]2CCCN2C(=O)CN(C)C1=O [3BP-4607, nBu-CAyl-[Cys(tMeBn(DOTA-AET))-Nmg-Pro-Thr-Gln-Phe-Cys]-OH] ({NHBu-CO}-C[Sar]PTQFC-OH; linker 1-7 via TBMB(SCH2CH2NH-DOTA))	< 10	< 10	–	< 10	–
CCCCCC(=O)N[C@H]1CSCc2cc(CSCCNC(=O)CN3CCN(CC(=O)O)CCN(CC(=O)O)CCN(CC(=O)O)CC3)cc(c2)CSC[C@@H](C(=O)N[C@H](CC(=O)O)Cc2ccccc2)NC(=O)[C@H](Cc2ccccc2)NC(=O)[C@H](CCC(N)=O)NC(=O)[C@H]([C@@H](C)O)NC(=O)[C@@H]2CCCN2C(=O)[C@@H]2CCCN2C1=O [3BP-3660, Hex-[Cys(tMeBn(DOTA-AET))-Pro-Pro-Thr-Gin-Phe-Cys]-Bhf-OH]	< 10	< 10	< 10	–	–
CCCCCC(=O)N[C@H]1CSCc2cc(CSCCNC(=O)CN3CCN(CC(=O)O)CCN(CC(=O)O)CCN(CC(=O)O)CC3)cc(c2)CSC[C@@H](C(=O)O)NC(=O)[C@H](Cc2ccccc2C(F)(F)F)NC(=O)[C@H](CCC(N)=O)NC(=O)[C@H]([C@@H](C)O)NC(=O)[C@@H]2CCCN2C(=O)[C@@H]2CCCN2C1=O [3BP-3680, Hex-[Cys(tMeBn(DOTA-AET))-Pro-Pro-Thr-Gln-Otf-Cys]-OH]	< 10	< 10	< 10	–	–
CCCCCC(=O)N[C@H]1CSCc2cc(CSCCNC(=O)CN3CCN(CC(=O)O)CCN(CC(=O)O)CCN(CC(=O)O)CC3)cc(c2)CSC[C@@H](C(=O)O)NC(=O)[C@H](Cc2ccccc2)NC(=O)[C@H](CCC(N)=O)NC(=O)[C@H]([C@@H](C)O)NC(=O)[C@@H]2CCCN2C(=O)CN(C)C1=O [3BP-3678, Hex-[Cys(tMeBn(DOTA-AET))-Nmg-Pro-Thr-Gln-Phe-Cys]-OH] (Hexanoyl-C[Sar]PTQFC-OH; linker 1-7 via TBMB(SCH2CH2NH-DOTA))	< 10	< 10	< 10	–	–
